# In paper PMC7615677 (Science translational medicine, 2023):
# Read-outs that look alike come from different tables or passages of the source.
# Tests used:
# [1] = Compartmental PK modelling and repeat-dose simulation; set-up: species or system hamsters
# Experimental: To support pharmacokinetic/pharmacodynamic (PKPD) analysis, data in mice and hamsters were also analyzed by compartmental modeling using Phoenix WinNonlin (version 8.2; Certara, Princeton, NJ). For each dose level, an extravascular dosing, single compartment disposition model was fit to the combined Day 1/Day 5 repeat dose plasma data. The model was parameterized with a single volume term (V/F), and with first order absorption (K01) and elimination (K10) rate constants. Initial values for the parameter estimates were obtained by fitting of the model to the Day 1 data at the lowest dose level only, and the same initial values were used across the dose range. Experimental data used in model fitting were the mean concentration-time profiles and the average dose administered to each group. The weighting scheme (1/Y2 for mouse and 1/Y for hamster) was selected based on goodness of fit of the peak region of the experimental profiles. Parameter estimates obtained through fitting were used to simulate full repeat-dose plasma concentration-time profiles with both once-daily and twice-daily (dosing at […]) administration at each dose level and treatment duration used in the efficacy studies.
# [2] = In vitro metabolism, cryopreserved hepatocytes; type: in vitro ADME, rat
# Experimental: Cell viability was determined using trypan blue exclusion. The incubation was performed on a plate shaker (Heidolph Titrimax 100, 900 rpm) placed in a humidified incubator (37°C, 7.5% CO2) for 240 min. The reaction was initiated with the addition of compound with samples taken periodically and quenched with the addition of acetonitrile containing internal standards (metolazone and diazepam). Quenched samples were maintained on ice for approximately 20-30 min, centrifuged (for 5 min) and the supernatant analyzed by LC-MS.
# In vitro intrinsic clearance (CLint, μL/min/mg or μL/min/10^6 cells) values were calculated from the apparent first order degradation rate constant divided by the microsome concentration or the hepatocyte cell number (10^6 viable cells/mL). In vitro CLint values were then divided by the fraction unbound in the in vitro test system (to give CLint,u) and scaled to in vivo values (mL/min/kg) using published physiological scaling factors ([28]). Blood clearance in each species was then calculated using the well-stirred model of hepatic extraction (equation 2) where Q is the hepatic blood flow and fu,blood is calculated from fu,plasma/B:P: [2] PredictedCLblood=Q x fu,blood x CLint,u/Q+fu,blood x CLint,u
# Blood clearance values were converted to plasma clearance by multiplying by the B:P.
# NMDA receptor = experiment: In vitro pharmacology panel (Eurofins); type: binding, rat; conditions: 10 µM
# From the text: (§1) Listed values represent the percent change relative to the DMSO control activity. When an IC50 had to be determined, eight different concentrations were included. All values are the mean of assay readout duplicates.
# KV channel = experiment: In vitro pharmacology panel (Eurofins); type: binding, rat; conditions: 10 µM
# From the text: as §1
# [3] = system: Ca2+ channel, (L,dihydropyridine site); experiment: In vitro pharmacology panel (Eurofins); type: binding, rat; conditions: 10 µM
# From the text: as §1
# OAT3 = target: T1, OAT3 (Homo sapiens, UniProt Q8TCC7); experiment: Drug transporter inhibition panel; type: in vitro ADME; conditions: 1 and 10 μM
# T1 construct: Eurofins
# T1 sequence (Q8TCC7 whole entry): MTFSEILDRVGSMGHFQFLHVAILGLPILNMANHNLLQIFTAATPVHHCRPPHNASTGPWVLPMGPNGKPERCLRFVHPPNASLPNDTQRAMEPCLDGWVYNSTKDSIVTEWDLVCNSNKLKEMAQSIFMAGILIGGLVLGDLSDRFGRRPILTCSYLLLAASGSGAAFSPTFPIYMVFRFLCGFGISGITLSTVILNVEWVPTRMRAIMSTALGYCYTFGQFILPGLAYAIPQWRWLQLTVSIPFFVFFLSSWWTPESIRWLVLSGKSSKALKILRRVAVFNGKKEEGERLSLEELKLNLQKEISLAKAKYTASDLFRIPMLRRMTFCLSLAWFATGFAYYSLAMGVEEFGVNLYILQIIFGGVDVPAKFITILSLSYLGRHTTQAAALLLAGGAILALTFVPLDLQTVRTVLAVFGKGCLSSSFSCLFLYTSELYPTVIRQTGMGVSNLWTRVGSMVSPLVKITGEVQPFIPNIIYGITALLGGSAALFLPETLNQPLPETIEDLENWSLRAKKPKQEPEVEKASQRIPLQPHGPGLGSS
# From the text: as §1
# BSEP = BSEP (Homo sapiens, UniProt O95342); experiment: Drug transporter inhibition panel; type: in vitro ADME; conditions: 1 and 10 μM
# BSEP, sequence (O95342 whole entry, species assumed): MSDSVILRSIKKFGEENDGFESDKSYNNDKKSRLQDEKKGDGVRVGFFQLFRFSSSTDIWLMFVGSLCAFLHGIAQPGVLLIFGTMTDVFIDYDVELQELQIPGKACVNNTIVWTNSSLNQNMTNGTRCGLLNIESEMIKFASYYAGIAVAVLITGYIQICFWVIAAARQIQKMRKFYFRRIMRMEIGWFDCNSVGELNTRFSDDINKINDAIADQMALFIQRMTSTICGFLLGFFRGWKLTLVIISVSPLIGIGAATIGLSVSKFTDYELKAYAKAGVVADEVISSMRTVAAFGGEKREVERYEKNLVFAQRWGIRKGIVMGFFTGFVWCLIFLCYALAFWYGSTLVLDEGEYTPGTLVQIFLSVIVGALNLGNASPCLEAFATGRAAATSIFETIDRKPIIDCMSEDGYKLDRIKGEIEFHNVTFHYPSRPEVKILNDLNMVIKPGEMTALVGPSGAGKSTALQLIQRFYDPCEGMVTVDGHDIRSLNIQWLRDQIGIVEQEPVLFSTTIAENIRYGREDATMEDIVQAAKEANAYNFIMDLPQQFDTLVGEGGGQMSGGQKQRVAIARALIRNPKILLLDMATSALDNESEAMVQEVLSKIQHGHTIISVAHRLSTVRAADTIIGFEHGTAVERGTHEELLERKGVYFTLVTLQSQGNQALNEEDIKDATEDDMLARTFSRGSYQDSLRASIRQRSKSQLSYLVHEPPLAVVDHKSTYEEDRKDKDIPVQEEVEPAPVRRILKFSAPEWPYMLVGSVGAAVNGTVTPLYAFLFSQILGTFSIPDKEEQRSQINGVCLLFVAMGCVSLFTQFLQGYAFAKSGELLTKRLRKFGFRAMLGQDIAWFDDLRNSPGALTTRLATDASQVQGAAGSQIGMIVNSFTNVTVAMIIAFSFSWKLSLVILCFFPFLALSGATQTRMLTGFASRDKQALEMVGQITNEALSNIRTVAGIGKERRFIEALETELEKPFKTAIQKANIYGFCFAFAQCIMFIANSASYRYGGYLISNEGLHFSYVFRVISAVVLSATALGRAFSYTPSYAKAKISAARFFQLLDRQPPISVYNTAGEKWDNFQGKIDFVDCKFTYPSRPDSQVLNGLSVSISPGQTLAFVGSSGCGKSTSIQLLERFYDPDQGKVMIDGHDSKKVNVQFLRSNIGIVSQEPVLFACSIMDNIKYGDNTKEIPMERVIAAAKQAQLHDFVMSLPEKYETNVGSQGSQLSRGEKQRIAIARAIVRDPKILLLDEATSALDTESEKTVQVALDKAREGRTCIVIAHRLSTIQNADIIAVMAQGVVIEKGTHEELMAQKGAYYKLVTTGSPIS
# From the text: as §1
# OATP1B1 = target: T2, OATP1B1 (Homo sapiens, UniProt Q9Y6L6); experiment: Drug transporter inhibition panel; type: in vitro ADME
# T2 construct: Eurofins
# From the text: as §1
# MATE2-K = target: T3, MATE2-K (Homo sapiens, UniProt Q86VL8); experiment: Drug transporter inhibition panel; type: in vitro ADME
# T3 construct: Eurofins
# T3 sequence (Q86VL8 1-566 isoform Q86VL8-3): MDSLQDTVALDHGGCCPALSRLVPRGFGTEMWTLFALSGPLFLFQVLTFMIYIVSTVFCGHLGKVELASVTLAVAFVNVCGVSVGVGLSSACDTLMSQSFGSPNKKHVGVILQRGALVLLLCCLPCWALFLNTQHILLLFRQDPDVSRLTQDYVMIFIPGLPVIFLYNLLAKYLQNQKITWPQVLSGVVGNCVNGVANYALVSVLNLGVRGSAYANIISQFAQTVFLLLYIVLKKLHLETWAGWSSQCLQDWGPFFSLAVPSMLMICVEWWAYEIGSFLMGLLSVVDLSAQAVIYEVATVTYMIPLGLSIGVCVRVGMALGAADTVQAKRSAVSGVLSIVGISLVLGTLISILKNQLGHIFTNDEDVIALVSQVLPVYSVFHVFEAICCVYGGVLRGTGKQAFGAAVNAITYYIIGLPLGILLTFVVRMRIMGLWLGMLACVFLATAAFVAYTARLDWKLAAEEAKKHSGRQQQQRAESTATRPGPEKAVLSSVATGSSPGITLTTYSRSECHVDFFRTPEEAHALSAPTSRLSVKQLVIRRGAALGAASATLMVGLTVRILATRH
# From the text: as §1
# OCT2 = target: T4, OCT2 (Homo sapiens, UniProt O15244); experiment: Drug transporter inhibition panel; type: in vitro ADME; conditions: 1 and 10 μM
# T4 construct: Eurofins
# T4 sequence (O15244 whole entry): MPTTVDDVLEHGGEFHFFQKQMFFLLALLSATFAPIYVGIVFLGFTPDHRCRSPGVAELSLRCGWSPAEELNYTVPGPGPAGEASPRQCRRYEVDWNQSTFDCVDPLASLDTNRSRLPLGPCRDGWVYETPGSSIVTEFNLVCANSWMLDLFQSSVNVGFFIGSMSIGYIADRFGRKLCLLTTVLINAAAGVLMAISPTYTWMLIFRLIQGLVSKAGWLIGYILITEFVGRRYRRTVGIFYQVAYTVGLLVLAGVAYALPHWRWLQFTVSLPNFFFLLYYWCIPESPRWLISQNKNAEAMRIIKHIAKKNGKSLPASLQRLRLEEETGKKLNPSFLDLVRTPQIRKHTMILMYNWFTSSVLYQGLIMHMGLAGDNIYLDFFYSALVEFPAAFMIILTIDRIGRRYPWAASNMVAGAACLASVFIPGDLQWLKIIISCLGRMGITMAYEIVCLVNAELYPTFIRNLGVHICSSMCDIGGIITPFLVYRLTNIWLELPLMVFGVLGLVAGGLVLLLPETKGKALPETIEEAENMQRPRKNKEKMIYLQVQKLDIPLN
# From the text: as §1
# OATP1B3 = target: T5, OATP1B3 (Homo sapiens, UniProt Q9NPD5); experiment: Drug transporter inhibition panel; type: in vitro ADME
# T5 construct: Eurofins
# T5 sequence (Q9NPD5 whole entry): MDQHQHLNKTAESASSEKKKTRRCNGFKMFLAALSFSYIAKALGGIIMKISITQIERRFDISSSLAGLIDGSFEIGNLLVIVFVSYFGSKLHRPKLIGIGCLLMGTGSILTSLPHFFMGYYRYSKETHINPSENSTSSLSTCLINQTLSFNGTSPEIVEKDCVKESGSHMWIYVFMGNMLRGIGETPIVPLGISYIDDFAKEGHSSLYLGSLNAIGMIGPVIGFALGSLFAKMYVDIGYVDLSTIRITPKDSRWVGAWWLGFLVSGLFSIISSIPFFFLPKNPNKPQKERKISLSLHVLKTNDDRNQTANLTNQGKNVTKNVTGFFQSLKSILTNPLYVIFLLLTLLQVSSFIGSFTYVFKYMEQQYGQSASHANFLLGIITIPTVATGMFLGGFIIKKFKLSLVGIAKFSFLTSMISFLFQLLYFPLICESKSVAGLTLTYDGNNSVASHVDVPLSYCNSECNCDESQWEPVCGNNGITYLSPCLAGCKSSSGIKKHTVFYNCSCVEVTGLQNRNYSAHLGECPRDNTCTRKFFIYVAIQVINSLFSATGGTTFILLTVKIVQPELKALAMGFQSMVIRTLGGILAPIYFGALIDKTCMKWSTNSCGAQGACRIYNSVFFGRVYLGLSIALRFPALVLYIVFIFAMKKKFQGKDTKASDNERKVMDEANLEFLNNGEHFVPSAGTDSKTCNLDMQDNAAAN
# From the text: as §1
# OAT1 = target: T6, OAT1 (Homo sapiens, UniProt Q4U2R8); experiment: Drug transporter inhibition panel; type: in vitro ADME; conditions: 1 and 10 μM
# T6 construct: Eurofins
# T6 sequence (Q4U2R8 whole entry): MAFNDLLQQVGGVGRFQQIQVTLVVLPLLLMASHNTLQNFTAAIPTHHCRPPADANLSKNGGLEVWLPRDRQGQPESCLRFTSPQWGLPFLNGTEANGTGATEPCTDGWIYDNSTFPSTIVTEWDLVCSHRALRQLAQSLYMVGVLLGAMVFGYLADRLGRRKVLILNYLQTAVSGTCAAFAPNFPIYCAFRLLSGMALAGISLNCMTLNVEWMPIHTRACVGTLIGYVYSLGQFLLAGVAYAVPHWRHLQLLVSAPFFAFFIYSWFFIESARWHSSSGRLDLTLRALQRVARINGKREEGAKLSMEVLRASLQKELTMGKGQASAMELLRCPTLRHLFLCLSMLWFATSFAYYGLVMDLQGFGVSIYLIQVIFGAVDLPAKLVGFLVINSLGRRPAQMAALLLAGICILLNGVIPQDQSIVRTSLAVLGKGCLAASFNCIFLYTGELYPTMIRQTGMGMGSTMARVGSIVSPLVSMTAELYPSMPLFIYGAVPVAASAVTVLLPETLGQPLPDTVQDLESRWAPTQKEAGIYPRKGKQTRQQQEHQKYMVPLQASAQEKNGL
# From the text: as §1
# OCT1 = target: T7, OCT1 (Homo sapiens, UniProt O15245); experiment: Drug transporter inhibition panel; type: in vitro ADME; conditions: 1 and 10 μM
# T7 construct: Eurofins
# T7 sequence (O15245 whole entry): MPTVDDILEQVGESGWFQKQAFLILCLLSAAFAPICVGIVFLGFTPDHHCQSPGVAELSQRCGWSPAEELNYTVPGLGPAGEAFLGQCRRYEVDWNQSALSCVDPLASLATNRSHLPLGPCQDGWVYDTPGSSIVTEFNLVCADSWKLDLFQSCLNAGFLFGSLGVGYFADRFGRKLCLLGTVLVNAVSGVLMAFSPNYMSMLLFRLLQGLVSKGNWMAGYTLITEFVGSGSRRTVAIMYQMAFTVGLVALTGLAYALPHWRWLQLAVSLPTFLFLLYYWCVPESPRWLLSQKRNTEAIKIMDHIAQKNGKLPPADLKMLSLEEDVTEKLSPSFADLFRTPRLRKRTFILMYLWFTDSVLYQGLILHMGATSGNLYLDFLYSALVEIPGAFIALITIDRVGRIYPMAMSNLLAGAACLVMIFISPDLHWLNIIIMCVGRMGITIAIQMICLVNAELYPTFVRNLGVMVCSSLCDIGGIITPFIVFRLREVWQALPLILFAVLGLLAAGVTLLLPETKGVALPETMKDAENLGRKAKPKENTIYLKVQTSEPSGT
# From the text: as §1
# BCRP = BCRP (Homo sapiens, UniProt Q9UNQ0); experiment: Drug transporter inhibition panel; type: in vitro ADME; conditions: 1 and 10 μM
# From the text: as §1
# [4] = system: T. b. rhodesiense (bloodstream form); experiment: In vitro activity against other kinetoplastid parasites; type: cell-based; conditions: Trypanosoma brucei, one range given for T. brucei brucei and T. b. rhodesiense
# [5] = system: T. brucei brucei (bloodstream form); experiment: as above; type: cell-based; conditions: Trypanosoma brucei, one range given for T. brucei brucei and T. b. rhodesiense
# [6] = hamster, plasma, po, Hamsters, 12.5 mg/kg, fitted
# [7] = hamster, plasma, po, Hamsters, 25 mg/kg, fitted
# [8] = hamster, plasma, po, Hamsters, 50 mg/kg, fitted
# [9] = hamsters, 3.125 mg/kg bid, 5 days, simulated
# [10] = hamsters, 12.5 mg/kg bid, 5 days, simulated
# [11] = hamsters, 12.5 mg/kg qd, 5 days, simulated
# [12] = hamsters, 25 mg/kg qd, 5 days, simulated
# [13] = hamsters, 50 mg/kg qd, 5 days, simulated
compound,measurement,setting,value
Cc1[nH]c2nc(N)nc(C)c2c1-c1ccc(C#N)c2c1OCO2 [DNDI-6174],K01,"[1]; Hamsters, 12.5 mg/kg, fitted",0.321 h⁻¹
same,K10,"[1]; Hamsters, 12.5 mg/kg, fitted",0.336 h⁻¹
same,V/F,"[1]; Hamsters, 12.5 mg/kg, fitted",1.57 L/kg
same,K01,"[1]; Hamsters, 25 mg/kg, fitted",0.298 h⁻¹
same,K10,"[1]; Hamsters, 25 mg/kg, fitted",0.295 h⁻¹
same,V/F,"[1]; Hamsters, 25 mg/kg, fitted",1.75 L/kg
same,K01,"[1]; Hamsters, 50 mg/kg, fitted",0.660 h⁻¹
same,K10,"[1]; Hamsters, 50 mg/kg, fitted",0.184 h⁻¹
same,V/F,"[1]; Hamsters, 50 mg/kg, fitted",1.83 L/kg
same,Cmax,"[1]; hamster, plasma, po, 3.125 mg/kg, hamsters, 3.125 mg/kg bid, 5 days, simulated",341 ng/mL
same,Cmax,"[1]; hamster, plasma, po, 12.5 mg/kg, Hamsters, fitted",2850 ng/mL
same,Cmax,"[1]; hamster, plasma, po, 12.5 mg/kg, hamsters, 12.5 mg/kg bid, 5 days, simulated",3690 ng/mL
same,AUC,"[1]; hamster, plasma, po, 12.5 mg/kg, hamsters, 12.5 mg/kg bid, 5 days, simulated, read-out: AUC24 ss",47600 ng·h/mL
same,AUC,"[1]; hamster, plasma, po, 12.5 mg/kg, hamsters, 12.5 mg/kg bid, 5 days, simulated, read-out: Cum AUC",238000 ng·h/mL
same,Cmax,"[1]; hamster, plasma, po, 12.5 mg/kg, hamsters, 12.5 mg/kg qd, 5 days, simulated",2880 ng/mL
same,AUC,"[1]; hamster, plasma, po, 12.5 mg/kg, hamsters, 12.5 mg/kg qd, 5 days, simulated, read-out: AUC24 ss",23800 ng·h/mL
same,AUC,"[1]; hamster, plasma, po, 12.5 mg/kg, hamsters, 12.5 mg/kg qd, 5 days, simulated, read-out: Cum AUC",119000 ng·h/mL
same,Cmax,"[1]; hamster, plasma, po, 25 mg/kg, Hamsters, fitted",5280 ng/mL
same,Cmax at 5 days,"[1]; hamster, plasma, po, 25 mg/kg, hamsters, 25 mg/kg qd, 5 days, simulated",5330 ng/mL
same,AUC,"[1]; hamster, plasma, po, 25 mg/kg, hamsters, 25 mg/kg qd, 5 days, simulated, read-out: AUC24 ss",48600 ng·h/mL
same,AUC,"[1]; hamster, plasma, po, 25 mg/kg, hamsters, 25 mg/kg qd, 5 days, simulated, read-out: Cum AUC",243000 ng·h/mL
same,Cmax,"[1]; hamster, plasma, po, 50 mg/kg, Hamsters, fitted",15600 ng/mL
same,Cmax,"[1]; hamster, plasma, po, 50 mg/kg, hamsters, 50 mg/kg qd, 5 days, simulated",17000 ng/mL
same,AUC,"[1]; hamster, plasma, po, 50 mg/kg, hamsters, 50 mg/kg qd, 5 days, simulated, read-out: AUC24 ss",148000 ng·h/mL
same,AUC at 5 days,"[1]; hamster, plasma, po, 50 mg/kg, hamsters, 50 mg/kg qd, 5 days, simulated, read-out: Cum AUC",742000 ng·h/mL
same,AUC(0-inf),[1]; [6],23600 ng·h/mL
same,CL/F,[1]; [6],8.75 mL/min/kg
same,AUC(0-inf),[1]; [7],48400 ng·h/mL
same,CL/F,[1]; [7],8.58 mL/min/kg
same,AUC(0-inf),[1]; [8],140000 ng·h/mL
same,CL/F,[1]; [8],5.62 mL/min/kg
same,Cmax (unbound),[1]; [9],31 ng/mL
same,Cmin,[1]; [9],13 ng/mL
same,Cmin (unbound),[1]; [9],1 ng/mL
same,AUC24 ss (unbound),[1]; [10],4280 ng·h/mL
same,Cav ss,[1]; [10],1980 ng/mL
same,Cav ss (unbound),[1]; [10],178 ng/mL
same,Cmax (unbound),[1]; [10],332 ng/mL
same,Cmin,[1]; [10],238 ng/mL
same,Cmin (unbound),[1]; [10],21 ng/mL
same,Cum AUC (unbound),[1]; [10],21400 ng·h/mL
same,AUC24 ss (unbound),[1]; [11],2140 ng·h/mL
same,Cav ss,[1]; [11],991 ng/mL
same,Cav ss (unbound),[1]; [11],89 ng/mL
same,Cmax (unbound),[1]; [11],259 ng/mL
same,Cmin,[1]; [11],23 ng/mL
same,Cmin (unbound),[1]; [11],2 ng/mL
same,Cum AUC (unbound),[1]; [11],10700 ng·h/mL
same,AUC24 ss (unbound),[1]; [12],4370 ng·h/mL
same,Cav ss,[1]; [12],2020 ng/mL
same,Cav ss (unbound),[1]; [12],182 ng/mL
same,Cmax (unbound),[1]; [12],480 ng/mL
same,Cmin,[1]; [12],83 ng/mL
same,Cmin (unbound),[1]; [12],7 ng/mL
same,Cum AUC (unbound),[1]; [12],21900 ng·h/mL
same,AUC24 ss (unbound),[1]; [13],13400 ng·h/mL
same,Cav ss,[1]; [13],6190 ng/mL
same,Cav ss (unbound),[1]; [13],557 ng/mL
same,Cmax (unbound),[1]; [13],1530 ng/mL
same,Cmin,[1]; [13],463 ng/mL
same,Cmin (unbound),[1]; [13],42 ng/mL
same,Cum AUC (unbound),[1]; [13],66800 ng·h/mL
same,Hepatocyte predicted in vivo CLplasma,[2]; Rat,2.7 mL/min/kg
same,hepatocyte CLint at 0.5 µM,"[2]; rat, cryopreserved hepatocytes",5.3 ± 0.19 µL/min/1e6 cells
same,activity (% of DMSO control),NMDA receptor,89.6%
same,activity (% of DMSO control),KV channel,98.7%
same,activity (% of DMSO control),[3],89.6%
same,activity remaining,OAT3,> 50%
same,activity remaining,BSEP,> 50%
same,IC50,OATP1B1,22 µM
same,IC50,MATE2-K,0.88 µM
same,activity remaining,OCT2,> 50%
same,IC50,OATP1B3,16 µM
same,activity remaining,OAT1,> 50%
same,activity remaining,OCT1,> 50%
same,activity remaining,BCRP,> 50%
same,EC50,[4],5 to 20 µM
same,EC50,[5],5 to 20 µM
